This note sets out measurements from the supplement of paper PMC11061612.

Assay in all cases: Bliss excess, mean over the matrix (fraction); higher = more synergy
Assay [1] concerns J82 (Bladder Carcinoma). The essentials: (§1)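 Cell lines in DMEM/F12 or RPMI with 10% FBS were plated in 1536-well plates, held 24 hours at 37°C, 5% CO2, then given two-drug dose matrices for 72 hours (DMSO typically 0.2%). Viability was read by CellTiter-Glo 2.0 luminescence and scaled as inhibition from 0 (vehicle wells) to 1 (blank wells). Combination Emax is the second-highest inhibition in the matrix; Bliss excess is observed combination effect minus expected EA + EB − EA·EB, EA and EB being single-agent effects.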

Assay [2] deals with KARPAS-1106P (B-Cell Non-Hodgkin's Lymphoma). The essentials: as §1
The subject of assay [3] is SW1783 (Low Grade Glioma). The procedure, abridged: as §1
Assay [4] concerns TGBC24TKB (Biliary Tract Carcinoma). The procedure, abridged:
as §1

The subject of assay [5] is ES7 (Ewing's Sarcoma). The procedure, abridged: as §1
Assay [6] relates to MDA-MB-157 (Breast Carcinoma). The procedure, abridged:
as §1

Assay [7] concerns MFH-ino (Other Solid Carcinomas). The procedure, abridged: as §1
The subject of assay [8] is CAL-78 (Chondrosarcoma). The essentials:
as §1

Assay [9] relates to IGR-1 (Melanoma). The essentials:
as §1

Assay [10] deals with DMS-273 (Small Cell Lung Carcinoma). The essentials: as §1
The subject of assay [11] is OCI-AML2 (Acute Myeloid Leukemia). The essentials: as §1
Assay [12] has as its system NCI-H1781 (Lung Adenocarcinoma). The essentials:
as §1

The subject of assay [13] is NCI-H1299 (Non-Small Cell Lung Carcinoma). The essentials: as §1
Assay [14] relates to SUIT-2 (Pancreatic Carcinoma). The procedure, abridged:
as §1

In assay [15] the test system is NCI-H1793 (Lung Adenocarcinoma). The procedure, abridged: as §1
Assay [16] relates to SW756 (Cervical Carcinoma). The essentials:
as §1

Assay [17] relates to EM-2 (Chronic Myelogenous Leukemia). The essentials:
as §1

Assay [18] relates to C3A (Hepatocellular Carcinoma). The essentials:
as §1

Assay [19] deals with KATOIII (Gastric Carcinoma). The procedure, abridged: as §1
Assay [20] relates to HT-29 (Colorectal Carcinoma). The procedure, abridged:
as §1

The structures appear in SMILES notation.

Take `CC1(C)CCC(CN2CCN(c3ccc(C(=O)NS(=O)(=O)c4ccc(NCC5CCOCC5)c([N+](=O)[O-])c4)c(Oc4cnc5[nH]ccc5c4)c3)CC2)=C(c2ccc(Cl)cc2)C1` [Venetoclax] + CCN(CCO)CCCOc1ccc2c(Nc3cc(CC(=O)Nc4cccc(F)c4)[nH]n3)ncnc2c1 [AZD2811] (first compound max 1 µM, 7x7, partner max 1 µM): the Bliss excess in [1] is -0.014; in assay [2], -0.0125; in assay [3] it was -0.0192; in [4] it was 0.005; in [5], 0.0074; in [6], 0.0119. Also, the Bliss excess is -0.0239 in [7]; 0.0143 in assay [8]; 0.0261 in assay [9]; 0.0016 in assay [10]; 0.0892 in [11]; 0.0061 in [12]. The Bliss excess in assay [13] is -0.0358; in assay [14], -0.0135; in [15], -0.0039; in assay [16] it was -0.0292; in [17], -0.0721; in assay [18], -0.0359. Further, the Bliss excess in assay [19] was -0.0226; in assay [20], 0.0012.

Take `Cc1cc2ncnn2cc1Nc1ncc2c(n1)n(C1CCOCC1)c(=O)n2C` [AZD7648] + C=CCn1c(=O)c2cnc(Nc3ccc(N4CCN(C)CC4)cc3)nc2n1-c1cccc(C(C)(C)O)n1 [AZD1775] (first compound max 10 µM, partner max 1 µM): the Bliss excess in assay [1] is -0.008; in [2], -0.0202; in assay [3], 0.0078; in assay [4], 0.0098; in assay [5] it was -0.0044; in assay [6], 0.0003. For the same compound, the Bliss excess in [7] is 0.0118; in assay [8] it was -0.0147; in assay [9], -0.0255; in assay [10], -0.0349; in [11], -0.0039; in assay [12] it was -0.0222. Besides, the Bliss excess in assay [13] was -0.0314; in [14], -0.0403; in [15] it was 0.0622; in assay [16] it was -0.0211; in assay [17], -0.015; in [18] it was 0.0187. In addition, the results for the Bliss excess in assay [19] and in assay [20] were -0.0052 and -0.0091, respectively.

Consider `NC1(C(=O)N[C@@H](CCO)c2ccc(Cl)cc2)CCN(c2ncnc3[nH]ccc23)CC1` [Capivasertib] + CC(C)n1c(=O)n(C)c2cnc3cc(F)c(-c4ccc(OCCCN5CCCCC5)nc4)cc3c21 [AZD1390] (first compound max 10 µM, 7x7, partner max 0.3 µM), for which the Bliss excess in [1] is -0.0659; in [2], -0.0004; in [3] it was -0.0625; in assay [4], -0.0261; in assay [5], -0.0471; in assay [6], -0.0306. Moreover, the Bliss excess in assay [7] is -0.0771; in [8], -0.0382; in [9] it was -0.0607; in [10], -0.0281; in [11] it was -0.0448; in assay [12], -0.0696. Besides, the Bliss excess was -0.0362 in assay [13]; -0.0441 in assay [14]; -0.0745 in assay [15]; -0.0647 in assay [16]; -0.0446 in assay [17]; -0.0724 in [18]. The results for the Bliss excess in assay [19] and in assay [20] were -0.118 and -0.0376, respectively.

Regarding `CN(CCO)CC[C@H](CSc1ccccc1)Nc1ccc(S(=O)(=O)NC(=O)c2ccc(N3CCC([C@@H](O)c4ccccc4-c4ccc(Cl)cc4)CC3)cc2)cc1S(=O)(=O)C(F)(F)F` [AZD4320] + Cn1cnc2c(F)c(Nc3ccc(Br)cc3Cl)c(C(=O)NOCCO)cc21 [Selumetinib] (first compound max 1 µM, 7x7, partner max 3 µM), the Bliss excess in assay [1] was -0.0144; in assay [2] it was -0.0007; in assay [3], -0.0419; in assay [4], 0.0369; in assay [5], 0.026; in [6] it was 0.0259. The Bliss excess is -0.03 in assay [7]; -0.0388 in assay [8]; 0.143 in [9]; -0.0768 in [10]; 0.0207 in [11]; 0.0131 in assay [12]. Also, the Bliss excess in assay [13] was 0.0505; in assay [14] it was 0.0126; in assay [15], 0.0496; in [16], 0.0022; in [17], 0.007; in assay [18] it was 0.141. Also, the Bliss excess in assay [19] was -0.0086; in [20] it was 0.02.

As to `Cc1c2c(nn1C)CSCc1cc(n(C)n1)CSc1cc(c3ccccc3c1)OCCCc1c(C(=O)O)n(C)c3c-2c(Cl)ccc13` [AZD5991] + C1CN(CCC1(C(=O)N[C@@H](CCO)C2=CC=C(C=C2)Cl)N)C3=NC=NC4=C3C=CN4 [Capivasertib] (first compound max 1 µM, 7x7, partner max 3 µM), the Bliss excess in assay [1] was -0.0046; in [2], 0.0188; in [3], -0.0145; in assay [4], 0.0066; in assay [5], 0.112; in assay [6], 0.0573. Moreover, the Bliss excess in [7] is -0.0372; in [8], 0.0091; in [9], 0.0228; in [10], -0.0524; in [11], 0.0385; in assay [12], 0.0079. In addition, the Bliss excess in [13] was -0.0174; in [14], -0.0304; in [15], 0.0258; in [16], -0.023; in assay [17], -0.0149; in assay [18], -0.0318. Moreover, the Bliss excess in [19] is -0.0267; in [20] it was -0.0114.

Take `Cc1c2c(nn1C)CSCc1cc(n(C)n1)CSc1cc(c3ccccc3c1)OCCCc1c(C(=O)O)n(C)c3c-2c(Cl)ccc13` [AZD5991] + Cn1cnc2c(F)c(Nc3ccc(Br)cc3Cl)c(C(=O)NOCCO)cc21 [Selumetinib] (first compound max 1 µM, 7x7, partner max 3 µM): the Bliss excess in assay [1] was -0.0073; in assay [2] it was 0.0497; in [3] it was -0.0782; in assay [4], 0.0488; in assay [5] it was 0.0375; in assay [6], -0.0098. The Bliss excess in [7] is -0.0311; in assay [8], -0.0288; in assay [9], 0.0239; in assay [10], -0.0137; in assay [11], 0.0107; in assay [12], -0.0165. In addition, the Bliss excess is -0.0039 in assay [13]; -0.0135 in assay [14]; 0.0133 in [15]; -0.0058 in [16]; -0.0053 in [17]; -0.0476 in [18]. The values for the Bliss excess in assay [19] and in [20] were -0.0085 and -0.006, respectively.

`COc1nnc2ccc(N3CCC(c4ccc(OCCN5CCN(C)C(=O)[C@H]5C)cc4)CC3)nn12` [AZD5153] + C[C@@H]1COCCN1C2=NC(=NC(=C2)C3(CC3)[S@](=N)(=O)C)C4=C5C=CNC5=NC=C4 [AZD6738] (first compound max 1 µM, 7x7, partner max 10 µM): the Bliss excess in assay [1] was 0.104; in assay [2], -0.0455; in [3], 0.0235; in assay [4], 0.0292; in assay [5], -0.0245; in assay [6], -0.0138. In addition, the Bliss excess in assay [7] was -0.0801; in assay [8], 0.0093; in assay [9], 0.0759; in assay [10], 0.0044; in [11], -0.0143; in assay [12], 0.0033. Also, the Bliss excess was -0.0088 in assay [13]; 0.0468 in assay [14]; 0.0127 in [15]; 0.0204 in assay [16]; 0.039 in assay [17]; 0.0348 in [18]. Also, the Bliss excess in assay [19] is -0.0164; in assay [20], -0.0307.
